Legend:
Experiment in all cases: in-line probing
Conditions in all cases: 20 mM MgCl2, 100 mM KCl, 50 mM Tris-HCl pH 8.3, 28 °C, 42-48 h, apparent
[1] = tested on: aptamer 3 (c-AMP-GMP riboswitch aptamer, cluster 3) (RNA, riboswitch) GCCGUGAAAAAACCACACCUCGGGCGACCGGGGGCCGGAAAGCCGCGGGUCUCAAAGGAGAUGGCCGGGUUGCCAGAAGGC
[2] = tested on: aptamer 1 (c-di-GMP-I riboswitch aptamer, cluster 1) (RNA, riboswitch) GUCGUGAACAAGCCACACCCCGGGCGACCGGGGGCCGGAAAGCCGCGGGUCUCAGCAGAGACGGCCGGGUUGCCACCAGGC
[3] = tested on: aptamer 2 (c-di-GMP-I riboswitch aptamer, cluster 2) (RNA, riboswitch) GUCGUGAAGAAGCCACACCCCGGGCGACCGGGGGCCGGAAAGCCGCGGGUCUCAGCAGAGACGGCCGGGUUGCCACCAGAC

## Nc1nc2c(ncn2[C@@H]2O[C@@H]3COP(=O)(O)O[C@H]4[C@@H](O)[C@H](n5cnc6c(=O)[nH]c(N)nc65)O[C@@H]4COP(=O)(O)O[C@H]3[C@H]2O)c(=O)[nH]1
[1]; Hill coefficient fixed at 1
  KD: ~ 100 nM
[2]; Hill coefficient fixed at 1
  KD: ~ 20 nM
[3]; Hill coefficient fixed at 1
  KD: ~ 77 nM

## Nc1nc2c(ncn2[C@@H]2O[C@@H]3COP(=O)(O)O[C@H]4[C@@H](O)[C@H](n5cnc6c(N)ncnc65)O[C@@H]4COP(=O)(O)O[C@H]3[C@H]2O)c(=O)[nH]1
[1]; Hill coefficient fixed at 1, micro sign lost in text layer ("1 M")
  KD: ~ 1 µM
[2]; Hill coefficient fixed at 1, micro sign lost in text layer ("34 M")
  KD: ~ 34 µM
[3]; Hill coefficient fixed at 1, micro sign lost in text layer ("25 M")
  KD: ~ 25 µM
